For this assay, the target named is T1, mGluR5 receptor (pig) (Sus scrofa, UniProt I3LUI7).
T1 construct: 450 μg protein from brain homogenate is incubated with 5 nM ^3[H]-MPEP; from tissue; host or cells: pig brain halves without medulla, cerebellum and pons
In words: [3H]-MPEP bond in the mGluR5 receptor bond assay (pig brain homogenate). The class given is binding. The conditions noted are these: 5 nM [3H]-MPEP; for IC50: pig brain homogenate; for inhibition at 10 µM: 10 μM test compound, 450 μg protein pig brain homogenate, 60 min room temperature. On the procedure: I. Method for Determining the Inhibition of the [^3H]-MPEP Bond in the mGluR5 Receptor Bond Assay
Pig brain homogenate is produced by homogenisation (Polytron PT 3000, Kinematica AG, 10,000 rpm for 90 seconds) of pig brain halves without medulla, cerebellum and pons in buffer pH 8.0 (30 mM Hepes, Sigma, order no. H3375+1 tablet complete to 100 ml, Roche Diagnostics, order no. 1836145) in the ratio 1:20 (brain weight/volume) and differential centrifugation at 900×g and 40,000×g. In each case, 450 μg protein from brain homogenate is incubated with 5 nM ^3[H]-MPEP (Tocris, order no. […]
Thereafter, the batches are filtered with the help of a Brandel Cell Harvester (Brandel, TYP Robotic 9600) on unifilter plates with glass fibre filter mats (Perkin Elmer, order no. 6005177) and subsequently washed with buffer (as above) 3 times with in each case 250 μl per sample. The filter plates are subsequently dried for 60 min at 55° C. 30 μL Ultima Gold™ scintillator (Packard BioScience, order no. 6013159) is subsequently added per well and the samples are measured after 3 hours on the β-counter (Mikrobeta, Perkin Elmer). The unspecific bond is determined by addition of 10 μM MPEP (Tocris, order no. 1212).

T1 sequence (I3LUI7 19-1212): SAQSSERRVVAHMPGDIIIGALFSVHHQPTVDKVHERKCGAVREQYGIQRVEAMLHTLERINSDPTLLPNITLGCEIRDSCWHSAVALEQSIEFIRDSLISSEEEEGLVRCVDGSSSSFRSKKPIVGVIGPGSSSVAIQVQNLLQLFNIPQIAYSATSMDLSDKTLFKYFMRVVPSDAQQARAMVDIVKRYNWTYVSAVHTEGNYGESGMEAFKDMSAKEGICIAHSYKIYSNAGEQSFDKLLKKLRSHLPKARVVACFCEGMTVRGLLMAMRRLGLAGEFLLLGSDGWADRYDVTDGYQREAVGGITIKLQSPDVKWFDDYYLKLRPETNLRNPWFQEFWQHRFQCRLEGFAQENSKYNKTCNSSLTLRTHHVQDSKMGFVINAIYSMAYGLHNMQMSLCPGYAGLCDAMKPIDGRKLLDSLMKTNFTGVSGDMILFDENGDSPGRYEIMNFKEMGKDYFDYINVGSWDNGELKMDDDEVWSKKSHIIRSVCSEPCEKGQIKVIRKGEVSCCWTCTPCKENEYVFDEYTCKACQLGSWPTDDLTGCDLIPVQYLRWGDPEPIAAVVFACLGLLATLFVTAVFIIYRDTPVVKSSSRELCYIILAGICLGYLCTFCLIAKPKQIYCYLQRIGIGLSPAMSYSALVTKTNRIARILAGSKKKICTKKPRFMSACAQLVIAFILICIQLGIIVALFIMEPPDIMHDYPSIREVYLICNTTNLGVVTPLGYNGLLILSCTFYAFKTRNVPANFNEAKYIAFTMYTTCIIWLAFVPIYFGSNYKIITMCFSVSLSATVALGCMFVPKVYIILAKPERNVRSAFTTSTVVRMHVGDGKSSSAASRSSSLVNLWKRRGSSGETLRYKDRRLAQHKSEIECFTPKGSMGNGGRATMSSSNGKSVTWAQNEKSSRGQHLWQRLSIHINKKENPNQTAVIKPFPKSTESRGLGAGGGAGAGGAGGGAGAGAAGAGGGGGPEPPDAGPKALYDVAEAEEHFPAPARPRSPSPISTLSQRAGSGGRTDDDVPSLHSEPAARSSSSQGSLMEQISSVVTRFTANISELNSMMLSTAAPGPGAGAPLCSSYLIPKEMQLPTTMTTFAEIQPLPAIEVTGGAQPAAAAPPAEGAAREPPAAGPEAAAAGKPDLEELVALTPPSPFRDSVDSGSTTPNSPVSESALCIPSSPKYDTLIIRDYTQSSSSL

By IC50 is commonly meant the concentration at which inhibition is half-maximal. The compound `O=C(C#Cc1cccc(Cl)c1)NCCc1ccccc1` [Example 2, 3-(3-chlorophenyl)-N-phenethylpropiolamide] returned an IC50 of 44 nM.

Turning to `O=C(C#Cc1cccc(Cl)c1)NCCc1ccccn1` [Example 3, 3-(3-chlorophenyl)-N-(2-(pyridine-2-yl)ethyl)propiolamide], the IC50 was 34 nM. `O=C(C#Cc1cccc(Cl)c1)NCCc1ccncc1` [Example 4, 3-(3-chlorophenyl)-N-(2-(pyridine-4-yl)ethyl)propiolamide] came in with a half-maximal inhibitory concentration (IC50) of 2000 nM. One may read the inhibition as the relative decrease from the control value, in per cent. In the case of `COc1cccc(C#CC(=O)NCCc2ccccn2)c1` [Example 6, 3-(3-methoxyphenyl)-N-(2-(pyridine-2-yl)ethyl)propiolamide], the inhibition at 10 µM was found to be 82%. Same read-out and setting: the result for `Cc1cc(C#CC(=O)NCCc2ccccn2)ccc1F` [Example 7, 3-(4-fluoro-3-methylphenyl)-N-(2-(pyridine-2-yl)ethyl)propiolamide] reads 82%. On to `O=C(C#Cc1ccccc1F)NCCc1ccccn1` [Example 8, 3-(2-fluorophenyl)-N-(2-(pyridine-2-yl)ethyl)propiolamide], for which the inhibition at 10 µM was 70%. Take `O=C(C#Cc1ccccc1)NCCc1ccccn1` [Example 11, 3-phenyl-N-(2-(pyridine-2-yl)ethyl)propiolamide]: the inhibition at 10 µM stood at 81%. As for `Cc1cccc(C#CC(=O)NCCc2ccccn2)c1` [Example 18, N-(2-(pyridine-2-yl)ethyl)-3-m-tolyl-propiolamide], the inhibition at 10 µM is 90%. As to `O=C(C#Cc1ccc(F)cc1)NCCc1ccccn1` [Example 20, 3-(4-fluoro-phenyl)-N-(2-(pyridine-2-yl)ethyl)propiolamide], the inhibition at 10 µM was determined as 54%.

Turning to `O=C(C#Cc1cccs1)NCCc1ccccn1` [Example 25, N-(2-(pyridine-2-yl)ethyl)-3-thiophene-2-yl-propiolamide], the inhibition at 10 µM is 68%. Consider `O=C(C#Cc1ccc2[nH]ccc2c1)NCCc1ccccn1` [Example 38, 3-(1H-indol-5-yl)-N-(2-(pyridine-2-yl)ethyl)propiolamide], for which the inhibition at 10 µM was found to be 36%. The same measure, in the same setting: as for `Cc1cc(C#CC(=O)N(C)CCc2ccccc2)ccc1F` [Example 41, 3-(4-fluoro-3-methylphenyl)-N-methyl-N-phenethylpropiolamide], the figure is 92%.

Take `CN(CCc1ccccc1)C(=O)C#Cc1ccccc1F` [Example 42, 3-(2-fluorophenyl)-N-methyl-N-phenethylpropiolamide]: the inhibition at 10 µM is 90%. Take `Cc1cccc(C#CC(=O)N(C)CCc2ccccc2)c1` [Example 46, N-methyl-N-phenethyl-3-m-tolylpropiolamide]: the inhibition at 10 µM worked out at 97%. Consider `Cc1ccc(C#CC(=O)N(C)CCc2ccccc2)c(C)c1` [Example 47, 3-(2,4-dimethylphenyl)-N-methyl-N-phenethylpropiolamide], for which the inhibition at 10 µM amounted to 51%. Still for that read-out and setting: as for `CN(CCc1ccccc1)C(=O)C#Cc1cccc(C(F)(F)F)c1` [Example 49, N-methyl-N-phenethyl-3-(3-(trifluoromethyl)phenyl)propiolamide], the figure is 108%. The same measure, in the same setting: as for `CN(CCc1ccccc1)C(=O)C#Cc1ccccc1C#N` [Example 55, 3-(2-cyanophenyl)-N-methyl-N-phenethylpropiolamide], the figure is 40%; as for `Cc1cc(C#CC(=O)NCCc2cccs2)ccc1F` [Example 56, 3-(4-fluoro-3-methylphenyl)-N-(2-(thiophene-2-yl)ethyl)propiolamide], 54%.

For `Cc1cccc(C#CC(=O)NCCc2c[nH]c3ccccc23)c1` [Example 57, N-(2-(1H-indol-3-yl)ethyl)-3-m-tolylpropiolamide], the inhibition at 10 µM turned out to be 91%. Turning to `COc1cccc(C#CC(=O)NCCc2cccc(Cl)c2)c1` [Example 58, N-(3-chlorophenethyl)-3-(3-methoxyphenyl)propiolamide], the inhibition at 10 µM was determined as 91%. Regarding `COc1cccc(C#CC(=O)NCCc2ccc(C)cc2)c1` [Example 59, 3-(3-methoxyphenyl)-N-(4-methylphenethyl)propiolamide], the inhibition at 10 µM amounted to 57%. Same read-out and setting: the result for `COc1cccc(C#CC(=O)NCCc2ccc(F)cc2)c1` [Example 61, N-(4-fluorophenethyl)-3-(3-methoxyphenyl)propiolamide] reads 85%. On the same count and under the same terms, as for `Cc1cc(C#CC(=O)NCCc2cccc(Cl)c2)ccc1F` [Example 62, N-(3-chlorophenethyl)-3-(4-fluoro-3-methylphenyl)propiolamide], the figure is 75%. Same read-out and setting: as for `O=C(C#Cc1ccccc1)NCCc1cccc(Cl)c1` [Example 65, N-(3-chlorophenethyl)-3-phenylpropiolamide], the figure is 97%; as for `Cc1ccc(CCNC(=O)C#Cc2ccccc2)cc1` [Example 66, N-(4-methylphenethyl)-3-phenylpropiolamide], 64%; as for `O=C(C#Cc1ccccc1)NCCc1ccc(F)cc1` [Example 68, N-(4-fluorophenethyl)-3-phenylpropiolamide], 90%. Regarding `Cc1cccc(C#CC(=O)NCCc2cccc(Cl)c2)c1` [Example 69, N-(3-chlorophenethyl)-3-m-tolylpropiolamide], the inhibition at 10 µM is 107%. Same read-out and setting: the result for `Cc1ccc(CCNC(=O)C#Cc2cccc(C)c2)cc1` [Example 70, N-(4-methylphenethyl)-3-m-tolylpropiolamide] reads 89%; that for `Cc1cccc(C#CC(=O)NCC(c2ccccc2)c2ccccc2)c1` [Example 71, N-(2,2-diphenylethyl)-3-m-tolylpropiolamide], 57%. On the same count and under the same terms, as for `O=C(C#Cc1ccc(F)cc1)NCCc1ccccc1` [Example 72, 3-(4-fluorophenyl)-N-phenethylpropiolamide], the figure is 57%; as for `O=C(C#Cc1cccs1)NCCc1cccs1` [Example 73, 3-(thiophene-2-yl)-N-(2-(thiophene-2-yl)ethyl)propiolamide], 76%. Same read-out and setting: as for `CN(CCc1ccccc1)C(=O)C#Cc1ccc(F)cc1F` [Example 78, 3-(2,4-difluorophenyl)-N-methyl-N-phenethylpropiolamide], the figure is 69%. As to `COc1cccc(C#CC(=O)N(C)CCc2ccccc2)c1` [Example 80, 3-(3-methoxyphenyl)-N-methyl-N-phenethylpropiolamide], the inhibition at 10 µM stood at 70%.

Turning to `COc1cccc(C#CC(=O)NCCc2ccccc2)c1` [Example 81, 3-(3-methoxyphenyl)-N-phenethylpropiolamide], the inhibition at 10 µM came to 79%.

In the case of `Cc1cc(C#CC(=O)NCCc2ccccc2)ccc1F` [Example 82, 3-(4-fluoro-3-methylphenyl)-N-phenethylpropiolamide], the inhibition at 10 µM stood at 69%. Consider `O=C(C#Cc1ccccc1)NCCc1ccccc1` [Example 83, N-phenethyl-3-phenylpropiolamide], for which the inhibition at 10 µM is 91%. Still for that read-out and setting: as for `Cc1cccc(C#CC(=O)NCCc2ccccc2)c1` [Example 84, N-phenethyl-3-m-tolylpropiolamide], the figure is 89%; as for `O=C(C#Cc1cccs1)NCCc1ccccc1` [Example 85, N-phenethyl-3-(thiophene-2-yl)propiolamide], 79%; as for `N#Cc1cccc(C#CC(=O)NCCc2ccccc2)c1` [Example 86, 3-(3-cyanophenyl)-N-phenethylpropiolamide], 86%. Same read-out and setting: as for `COc1cccc(C#CC(=O)NCCc2c[nH]c3ccccc23)c1` [Example 87, N-(2-(1H-indol-3-yl)ethyl)-3-(3-methoxyphenyl)propiolamide], the figure is 42%.

In the case of `O=C(C#Cc1ccc(F)cc1)NCCc1cccc(Cl)c1` [Example 89, N-(3-chlorophenethyl)-3-(4-fluorophenyl)propiolamide], the inhibition at 10 µM came to 64%. Same read-out and setting: the result for `O=C(C#Cc1ccc(F)cc1)NCCc1ccc(F)cc1` [Example 92, N-(4-fluorophenethyl)-3-(4-fluorophenyl)propiolamide] reads 42%; that for `O=C(C#Cc1cccc(Cl)c1)NCCc1cccc(Cl)c1` [Example 93, N-(3-chlorophenethyl)-3-(3-chlorophenyl)propiolamide], 89%; that for `O=C(C#Cc1cccs1)NCCc1cccc(Cl)c1` [Example 94, N-(3-chlorophenethyl)-3-(thiophene-2-yl)propiolamide], 84%.

Turning to `Cc1ccc(CCNC(=O)C#Cc2cccs2)cc1` [Example 95, N-(4-methylphenethyl)-3-(thiophene-2-yl)propiolamide], the inhibition at 10 µM is 75%.

For `O=C(C#Cc1cccs1)NCC(c1ccccc1)c1ccccc1` [Example 96, N-(2,2-diphenylethyl)-3-(thiophene-2-yl)propiolamide], the inhibition at 10 µM amounted to 31%.

As for `Cc1ccc(CCNC(=O)C#Cc2cccc(C#N)c2)cc1` [Example 97, 3-(3-cyanophenyl)-N-(4-methylphenethyl)propiolamide], the inhibition at 10 µM was 96%. `N#Cc1cccc(C#CC(=O)NCC(c2ccccc2)c2ccccc2)c1` [Example 98, 3-(3-cyanophenyl)-N-(2,2-diphenylethyl)propiolamide]: the inhibition at 10 µM was found to be 40%.

Source of the values: patent US20090182020A1, “SUBSTITUTED BIS(HETERO)AROMATIC N--ETHYLPROPIOLAMIDES AND USE THEREOF FOR PRODUCTION OF MEDICAMENTS” (GRUNENTHAL GMBH, priority 2005, published 2009).
